The values that follow come from patent EP1182208A2, “Composition for DNA transfection” (Roche Diagnostics GmbH, priority 2000, dated 2002).

One data set deals with HEK293. The data set is described as follows: Luciferase transfection efficiency, serum-free suspension culture (Example 5). Format: cell-based, Human. Particulars: soluble cell extract after 24 hours. As for the experimental part:
(§1) 1 mg of the compound obtained in Example 2 was dissolved in 500 µl sterile pure water (1 mg/ml) and stored at 4 °C. 90 mg polyethyleneimine, with a molecular weight of 25 kDa, was dissolved in sterile pure water (0.9 mg/ml), neutralized with HCl, sterile filtered and stored at room temperature.
(§2) 3 µl of a plasmid solution (1 mg/ml) encoding the luciferase gene was diluted in 1.5 ml culture medium and mixed. 2.25 µl compound (1 mg/ml) as described in Example 2 was added, mixed and followed by 8.3 µl PEI (0.9 mg/ml). After mixing and incubation for 10 minutes at room temperature, the mixture was transferred into 15 ml of various cells. Cells which were grown in serum-free suspension culture were transferred into fresh medium before adding the complexes. The luciferase activity was measured in the soluble cell extract after 24 hours incubation and expressed as relative light unit (RLU) per milligram protein.

For a further data set, the system named is HEK293-EBNA. Described as above. Type of data set: cell-based, Human. As to conditions: soluble cell extract after 24 hours. Here is the method:
as §1, §2

Data set [1] is described as follows: Cell viability of transfected HEK293-EBNA cells in serum-free suspension culture (Example 3). Type of data set: cell-based, Human. Particulars: human, HEK293-EBNA cells in suspension, serum-free suspension culture. Here is the method:
(§3) 1 mg of the compound obtained in Example 2 was dissolved in 500 µl acetonitrile, diluted in 500 µl sterile pure water (1 mg/ml) and stored at 4 °C. 15 µl of a plasmid solution (1 mg/ml) encoding the soluble human tumor necrosis factor receptor p55 gene was transferred into 1.5 ml medium and mixed. Various amounts of the compound obtained in […] was added, mixed and after 10 minutes at room temperature, the mixture was transferred to 15 ml HEK293-EBNA cells in suspension.

Data set [2] has as its system HEK293-EBNA cells. The data set is described as above. Type of data set: cell-based, Human. As to conditions: compound-mediated transfection; serum-free suspension culture of HEK293-EBNA cells. As for the experimental part: as §3
Data set [3] has as its system HEK293-EBNA cells. The data set is described as follows: Transient transfection of HEK293-EBNA cells in serum-free suspension culture, expression of soluble TNF receptor p55 (Example 3). Format: cell-based, Human. Here is the method:
as §3

For another data set, the system named is Glioma C6. The data set is described as follows: Luciferase transfection efficiency, serum-free suspension culture (Example 5). As to conditions: soluble cell extract after 24 hours. Type of data set: cell-based. Here is the method: as §1, §2
The test system of a further data set is BHK 21 Cl. The description is as above. Format: cell-based. Particulars: soluble cell extract after 24 hours. Here is the method:
as §1, §2

The next data set relates to CHO dhfr-. The data set is described as above. Particulars: soluble cell extract after 24 hours. Type of data set: cell-based. As for the experimental part:
as §1, §2

Data set [4] has as its system HEK293-EBNA cells. The data set is described as follows: Influence of antibiotics on transient transfection in HL medium, luciferase expression (Example 13). Particulars: control without = 100, compound from Example 2 and PEI. Format: cell-based, Human. Here is the method: 1 mg of the compound from Example 2 was dissolved in 0.5 ml acetonitrile, mixed for 3-5 minutes at 37 °C, diluted in 0.5 ml sterile, pure water (1 mg/ml) and stored at 4 °C. 90 mg polyethelenimine (PEI), with a molecular weight of 25 kDa, were dissolved in sterile, pure water (0.9 mg/ml), neutralized with HCl, sterile filtered and stored at 4 °C. 3 µl of a plasmid solution (1 mg/ml) encoding the luciferase gene was added to 1.5 ml HL medium (containing 0.3% Primatone RL) and mixed. After 2 minutes incubation at room temperature, 2.25 µl of the compound from Example 2 (1mg/ml) was added and mixed, followed by 8.3 µl PEI (0.9 mg/ml). After mixing and incubation for 15-30 minutes at room temperature, the mixture was transferred into 15 ml of HEK293-EBNA cells containing different antibiotics. Cells which were grown in serum-free suspension culture in HL medium (containing 0.3% Primatone RL and different antibiotics) were transferred into fresh HL medium (containing 0.3% Primatone RL and different antibiotics), then adjusted to 5.5-6 x 10^6 cells/ml before adding the DNA complexes. The luciferase activity was measured in the soluble cell extract after 20-22 hours incubation time and expressed as relative light units per ml culture.

Data set [5] relates to HEK293-EBNA cells. The data set can be described thus: Effect of various compounds on DNA complex formation in DMEM/HAM F12 medium, luciferase expression (Example 11). Type of data set: cell-based, Human. As for the experimental part:
1 mg of the compound from Example 2 was dissolved in 0.5 ml acetonitrile, mixed for 3-5 minutes at 37 °C, diluted in 0.5 ml sterile, pure water (1 mg/ml) and stored at 4 °C. 90 mg polyethelenimine (PEI), with a molecular weight of 25 kDa, were dissolved in sterile, pure water (0.9 mg/ml), neutralized with HCl, sterile filtered and stored at 4 °C.
Different growth promotion compounds were added to 1.5 ml DMEM/HAM F12 medium (without any compounds) and mixed. After 2-3 minutes, 3 µl of a plasmid solution (1 mg/ml) encoding the luciferase gene was added to the 1.5 ml […] and mixed. After 2 minutes incubation at room temperature, 2.25 µl of the compound from Example 2 (1mg/ml) was added and mixed, followed by 8.3 µl PEI (0.9 mg/ml). After mixing and incubation for 15-30 minutes at room temperature, the mixture was transferred into 15 ml of HEK293-EBNA cells. Cells which were grown in serum-free suspension culture in HL medium (containing 0.3% Primatone RL) were transferred into fresh HL medium (containing 0.3% Primatone RL) then adjusted to 5.5-6 x 10^6 cells/ml before adding the DNA complexes. The luciferase activity was measured in the soluble cell extract after 20-22 hours incubation time and expressed as relative light units per ml culture. […]

A word on the viability: it is a read-out of living cells in per cent, often relative to untreated cells. Higher therefore signals better survival. For `CCCCCCCC/C=C\CCCCCCCC(=O)OC[C@H](COP(=O)(O)OCCNC(=O)CCSSC[C@@H](NC(=O)[C@H](NC(=O)CNC(=O)[C@@H](C)NC(=O)[C@H](NC(=O)[C@@H](CC(C)C)NC(=O)[C@@H](CCCCN)NC(=O)[C@H](NC(=O)[C@@H](CC(C)C)NC(=O)[C@H](NC(=O)[C@H](NC(=O)CNC(=O)[C@@H](CC(C)C)NC(=O)[C@H]1CCCN1C(=O)[C@@H](C)NC(=O)[C@@H](CC(C)C)NC(=O)[C@H](NC(=O)[C@@H](CO)NC(=O)[C@@H](Cc1c[nH]c2ccccc12)NC(=O)[C@H](NC(=O)[C@@H](CCCCN)NC(=O)[C@@H](CCCNC(=N)N)NC(=O)[C@@H](CCCCN)NC(=O)[C@@H](CCCNC(=N)N)NC(=O)[C@@H](CCC(N)=O)NC(=O)[C@H](N)CCC(N)=O)[C@H](C)CC)[C@H](C)CC)[C@H](C)O)[C@H](C)O)C(C)C)C(C)C)[C@H](C)CC)C(N)=O)OC(=O)CCCCCCC/C=C\CCCCCCCC` [Compound, retro-inverso dioleylmelittin], the Luciferase activity in the data set with HEK293 is reported as 1.8 x 10^6 RLU/mg protein; in the data set with HEK293-EBNA, 2.2 x 10^6 RLU/mg protein; in the data set with Glioma C6, 5.8 x 10^6 RLU/mg protein; in the data set on BHK 21 Cl, 5.2 x 10^5 RLU/mg protein; in the data set on CHO dhfr-, 1.4 x 10^6 RLU/mg protein. The viability at 1 µg/mL in data set [1] (Compound 1 µg/ml) lay within 90 to 95%. Moreover, in data set [1] (Compound 2 µg/ml), the viability at 2 µg/mL was 90 to 95%. Besides, in data set [1] (Compound 4 µg/ml), the viability at 4 µg/mL is 90 to 95%. For the same molecule, the viability at 6 µg/mL in data set [1] (Compound 6 µg/ml) was 90 to 95%. In data set [1] (Compound 10 µg/ml), the viability at 10 µg/mL fell in the range of 90 to 95%. In the data set with HEK293-EBNA cells [2], the cell toxicity effects entry is reported as “absence of detectable cell toxicity effects”. Moreover, the TNFRp55 was 0.1 ng/mL in the data set with HEK293-EBNA cells [3] (Compound 1 µg/ml); 0.2 ng/mL in the data set on HEK293-EBNA cells [3] (Compound 2 µg/ml); 2.5 ng/mL in the data set with HEK293-EBNA cells [3] (Compound 4 µg/ml); 6.3 ng/mL in the data set with HEK293-EBNA cells [3] (Compound 6 µg/ml); 83 ng/mL in the data set with HEK293-EBNA cells [3] (Compound 10 µg/ml).

`C[C@H]1c2cccc(O)c2C(=O)C2=C(O)[C@]3(O)C(=O)C(C(N)=O)=C(O)[C@@H](N(C)C)[C@@H]3[C@@H](O)[C@@H]21` [Doxycycline] came in with a Luciferase activity in the data set on HEK293-EBNA cells [4] (antibiotic 2 µg/ml in HL medium with Primatone RL (0.3%)) of 89%.

In the data set on HEK293-EBNA cells [4] (antibiotic 250 µg/ml in HL medium with Primatone RL (0.3%)), `CN[C@@H]1[C@@H](O)[C@@H](O[C@@H]2[C@@H](O)[C@H](O[C@H]3O[C@H]([C@@H](C)O)[C@@H](O)[C@H](O)[C@H]3N)[C@@H](N)C[C@H]2N)OC[C@]1(C)O` [Geneticin (G-418), Geneticin] came in with a Luciferase activity of 93%.

With Gentamycin, the Luciferase activity in the data set on HEK293-EBNA cells [4] (antibiotic 50 µg/ml in HL medium with Primatone RL (0.3%)) turned out to be 80%.

Take `NC(=O)CC[C@H](N)C(=O)O` [Glutamine 200 mM, Glutamine]: in the data set with HEK293-EBNA cells [5] (additive 1:100, Primatone RL was set as 100 %), the “% Increase” value came out at 13%. The Luciferase activity with HEK293-EBNA cells [5] (additive dilution 1:100 in DMEM/HAM F12, compound from Example 2 and PEI) was 1.06 RLU x 10^9/ml.
